Experimental data as given in ChEMBL document CHEMBL2390905, “Recent development of potent analogues of oxazolidinone antibacterial agents” (Bioorg Med Chem, 2013).
≈ marks a conversion by molar mass, not a printed value.

What was measured:
[1] = molecular target: T1, Amine oxidase [flavin-containing] A (Homo sapiens, UniProt P21397); test: Inhibition of MAO-A (unknown origin) by luciferase […] assay
T1 sequence (P21397 whole entry): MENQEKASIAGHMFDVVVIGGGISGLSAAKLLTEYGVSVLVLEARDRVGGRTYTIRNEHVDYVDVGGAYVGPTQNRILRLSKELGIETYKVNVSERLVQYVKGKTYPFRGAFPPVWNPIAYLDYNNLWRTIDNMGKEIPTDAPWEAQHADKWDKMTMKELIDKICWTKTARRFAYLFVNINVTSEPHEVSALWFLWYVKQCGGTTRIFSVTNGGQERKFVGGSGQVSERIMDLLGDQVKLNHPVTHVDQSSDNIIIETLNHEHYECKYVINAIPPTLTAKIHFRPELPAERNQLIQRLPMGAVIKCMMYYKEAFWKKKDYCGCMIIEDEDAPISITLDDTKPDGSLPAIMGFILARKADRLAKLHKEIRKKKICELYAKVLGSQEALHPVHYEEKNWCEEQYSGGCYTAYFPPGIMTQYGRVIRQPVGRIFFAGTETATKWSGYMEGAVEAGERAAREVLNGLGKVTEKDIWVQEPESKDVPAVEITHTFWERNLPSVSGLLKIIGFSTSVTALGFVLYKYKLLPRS

[2] = test system: Enterococcus faecalis; test: Antibacterial activity against Enterococcus faecalis assessed as growth inhibition; assay type: functional
[3] = test system: Staphylococcus epidermidis; test: Antibacterial activity against Staphylococcus epidermidis assessed as growth inhibition; assay type: functional
[4] = test system: Staphylococcus aureus; test: Antibacterial activity against methicillin-resistant Staphylococcus aureus assessed as growth inhibition; assay type: functional
[5] = test system: Mycobacterium tuberculosis; test: Ratio of mefloquine MIC to compound MIC for Mycobacterium tuberculosis H37Rv; assay type: functional
[6] = test system: Haemophilus influenzae; test: Ratio of linezolid MIC to compound MIC for Haemophilus influenzae; assay type: functional
[7] = test system: Enterococcus faecium; test: Ratio of linezolid MIC to compound MIC for multidrug-resistant Enterococcus faecium; assay type: functional
[8] = test system: Enterococcus faecalis; test: Ratio of linezolid MIC to compound MIC for multidrug-resistant Enterococcus faecalis; assay type: functional
[9] = test system: Escherichia coli; test: Ratio of linezolid MIC to compound MIC for Escherichia coli; assay type: functional
[10] = test system: Staphylococcus epidermidis; test: Ratio of linezolid MIC to compound MIC for multidrug-resistant Staphylococcus epidermidis; assay type: functional
[11] = test system: Staphylococcus aureus; test: Ratio of linezolid MIC to compound MIC for multidrug-resistant Staphylococcus aureus; assay type: functional
[12] = test system: Enterococcus faecium; test: Antibacterial activity against Enterococcus faecium ATCC 700221 assessed as growth inhibition after 16 to 20 hrs by broth microdilution method; assay type: functional
[13] = test system: Staphylococcus aureus; test: Antibacterial activity against linezolid-resistant Staphylococcus aureus PTCC 100 assessed as growth inhibition after 16 to 20 hrs by broth microdilution method; assay type: functional
[14] = test system: Staphylococcus aureus; test: Antibacterial activity against methicillin-sensitive Staphylococcus aureus ATCC 29213 assessed as growth inhibition after 16 to 20 hrs by broth microdilution method; assay type: functional
[15] = test system: Staphylococcus aureus; test: Antibacterial activity against methicillin-resistant Staphylococcus aureus ATCC 33591 assessed as growth inhibition after 16 to 20 hrs by broth microdilution method; assay type: functional
[16] = test system: Enterococcus faecalis; test: Antibacterial activity against Enterococcus faecalis ATCC 29212 assessed as growth inhibition after 16 to 20 hrs by broth microdilution method; assay type: functional
[17] = test system: Staphylococcus aureus; test: Ratio of tedizolid MIC to compound MIC for methicillin-resistant Staphylococcus aureus; assay type: functional
[18] = test system: Enterococcus; test: Ratio of tedizolid MIC to compound MIC for Enterococcus spp; assay type: functional
[19] = test system: Staphylococcus aureus; test: Ratio of linezolid MIC to compound MIC for methicillin-resistant Staphylococcus aureus; assay type: functional
[20] = test system: Enterococcus; test: Ratio of linezolid MIC to compound MIC for Enterococcus spp; assay type: functional
[21] = test system: Streptococcus pneumoniae; test: Ratio of tedizolid MIC to compound MIC for Streptococcus pneumoniae; assay type: functional
[22] = test system: Streptococcus pneumoniae; test: Ratio of linezolid MIC to compound MIC for Streptococcus pneumoniae; assay type: functional
[23] = test system: Haemophilus influenzae; test: Ratio of tedizolid MIC to compound MIC for Haemophilus influenzae; assay type: functional

With `Cn1nnc(-c2ccc(-c3ccc(N4C[C@H](CO)OC4=O)cc3F)cn2)n1` [TEDIZOLID] the Ki [1] was < 2 µM.

`CC(=O)NC[C@H]1CN(c2ccc(N3CCN(C(=O)CCl)CC3)c(F)c2)C(=O)O1` gave an MIC [2] of 0.5 µg/mL (≈ 1.21 µM), an MIC [3] of 1 µg/mL (≈ 2.42 µM) and an MIC [4] of 1 µg/mL (≈ 2.42 µM).

In the case of `CCOC(=O)c1cc(COc2cc(C(F)(F)F)nc3c(C(F)(F)F)cccc23)on1`, the Ratio [5] is reported as 14.4.

`CC(=O)NC[C@H]1CN(c2ccc(N3CCN(C(=O)C(Cl)Cl)CC3)c(F)c2)C(=O)O1` showed an MIC [2] of 0.5 µg/mL (≈ 1.12 µM), an MIC [3] of 1 µg/mL (≈ 2.24 µM) and an MIC [4] of 1 µg/mL (≈ 2.24 µM).

With `CN1CCN(c2ccc(N3C[C@H](COC(N)=S)OC3=O)cc2F)C=N1` the Ki [1] was 4 µM.

In the case of `CC(=O)NC[C@H]1CN(c2ccc(N3CCOCC3)c(F)c2)C(=O)O1` [LINEZOLID], the Ki [1] is reported as 7.9 µM.

Work on `CC(=O)NC[C@H]1CN(c2ccc(-c3ccc(C(=O)NN)cc3)c(F)c2)C(=O)O1` yielded a Ratio [6] of 2, a Ratio [7] of 2 and a Ratio [8] of 2. For the same molecule, the Ratio [9] was 2, the Ratio [10] was 2 and the Ratio [11] was 2.

In the case of `O=C(/C=C/c1ccccc1)NC[C@H]1CN(c2cc(F)c(N3CCN(C(=O)CNC(=O)c4cn5cccnc5n4)CC3)c(F)c2)C(=O)O1`, the MIC [12] is reported as 0.25 µg/mL (≈ 0.388 µM), the MIC [13] is reported as 1 µg/mL (≈ 1.55 µM) and the MIC [14] is reported as 0.125 µg/mL (≈ 0.194 µM). The MIC [15] was 0.125 µg/mL (≈ 0.194 µM) and the MIC [16] was 0.125 µg/mL (≈ 0.194 µM).

With `CC(=O)NC[C@H]1CN(c2ccc(N3C=NN(C)CC3)c(F)c2)C(=O)O1` the Ki [1] was 4 µM.

In the case of `O=C1O[C@@H](CO)CN1c1ccc(-c2ccc(N3CCOC3=O)nc2)c(F)c1`, the Ratio [6] is reported as 8, the Ratio [17] is reported as 2 and the Ratio [18] is reported as 2. The Ratio [19] was 8, the Ratio [20] was 8 and the Ratio [21] was 2. It also gave a Ratio [22] of 8 and a Ratio [23] of 2.
